# In the supplement of paper PMC10307832:
# Assays:
# Experiment in all cases: relative viability (nuclei count vs DMSO), 5 days (fraction); higher = more cells survive
# Imatinib + Luminespib = compound: Cc1ccc(NC(=O)c2ccc(CN3CCN(C)CC3)cc2)cc1Nc1nccc(-c2cccnc2)n1 [Imatinib] + CCNC(=O)c1noc(-c2cc(C(C)C)c(O)cc2O)c1-c1ccc(CN2CCOCC2)cc1 [Luminespib] (partner 0.01 µM)
# How it was run: (§1)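 Lung cancer cell lines were seeded in 1536-well plates and dosed by pin tool the next day, with either a single drug or a fixed anchor-drug dose combined with five library-drug doses (not always all listed) spaced in √10 steps. Five days later, one step fixed the cells and stained their nuclei (final 0.05% Triton X-100, 1% formaldehyde, 1 ug/ml Hoechst), and nuclei were counted on 4× images. Relative viability is the nuclei count in treated wells divided by the count in vehicle wells, and each value is the median of duplicate plates.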
# Imatinib + OSI-027 = compound: Cc1ccc(NC(=O)c2ccc(CN3CCN(C)CC3)cc2)cc1Nc1nccc(-c2cccnc2)n1 [Imatinib] + COc1cccc2cc(-c3nc([C@H]4CC[C@H](C(=O)O)CC4)n4ncnc(N)c34)[nH]c12 [OSI-027] (partner 0.5 µM)
# How it was run: as §1
# Imatinib + Crizotinib = compound: Cc1ccc(NC(=O)c2ccc(CN3CCN(C)CC3)cc2)cc1Nc1nccc(-c2cccnc2)n1 [Imatinib] + C[C@@H](Oc1cc(-c2cnn(C3CCNCC3)c2)cnc1N)c1c(Cl)ccc(F)c1Cl [Crizotinib] (partner 1 µM)
# How it was run: as §1
# Imatinib + Olaparib = compound: Cc1ccc(NC(=O)c2ccc(CN3CCN(C)CC3)cc2)cc1Nc1nccc(-c2cccnc2)n1 [Imatinib] + O=C(c1cc(Cc2n[nH]c(=O)c3ccccc23)ccc1F)N1CCN(C(=O)C2CC2)CC1 [Olaparib] (partner 8 µM)
# How it was run: as §1
Cell Line,relative viability (Imatinib + Luminespib; first compound 0.02 µM),relative viability (Imatinib + Luminespib; first compound 0.06325 µM),relative viability (Imatinib + Luminespib; first compound 0.2 µM),relative viability (Imatinib + Luminespib; first compound 0.6325 µM),relative viability (Imatinib + Luminespib; first compound 2 µM),relative viability (Imatinib + OSI-027; first compound 0.02 µM),relative viability (Imatinib + OSI-027; first compound 0.06325 µM),relative viability (Imatinib + OSI-027; first compound 0.2 µM),relative viability (Imatinib + OSI-027; first compound 0.6325 µM),relative viability (Imatinib + OSI-027; first compound 2 µM),relative viability (Imatinib + Crizotinib; first compound 0.02 µM),relative viability (Imatinib + Crizotinib; first compound 0.06325 µM),relative viability (Imatinib + Crizotinib; first compound 0.2 µM),relative viability (Imatinib + Crizotinib; first compound 0.6325 µM),relative viability (Imatinib + Crizotinib; first compound 2 µM),relative viability (Imatinib + Olaparib; first compound 0.02 µM),relative viability (Imatinib + Olaparib; first compound 0.06325 µM),relative viability (Imatinib + Olaparib; first compound 0.2 µM),relative viability (Imatinib + Olaparib; first compound 0.6325 µM),relative viability (Imatinib + Olaparib; first compound 2 µM)
NCI-H647,0.198,0.121,0.134,0.119,0.146,0.621,0.693,0.704,0.626,0.562,1.1,1.36,1.45,1.12,1.06,0.803,0.67,0.792,0.588,0.495
NCI-H2085,0.548,0.628,0.421,0.463,0.541,0.823,0.432,0.717,0.724,0.588,0.826,0.891,0.903,0.839,0.841,0.765,0.759,0.825,0.784,0.742
NCI-H1651,0.926,0.829,0.947,0.749,0.83,–,0.848,0.727,0.739,0.665,0.916,0.775,–,0.855,0.891,0.173,0.231,0.177,0.19,0.166
NCI-H2126,0.955,–,0.979,–,0.959,0.851,0.68,0.673,0.604,0.678,1.04,–,1.05,1,0.984,0.892,0.742,0.92,0.985,0.924
NCI-H1734,0.194,0.204,0.181,0.177,0.233,0.656,0.54,0.64,0.609,0.5,0.674,–,0.891,0.642,–,0.621,–,0.605,0.648,0.639
LU99A,0.276,0.247,0.227,0.219,0.245,0.315,0.285,0.301,0.323,0.28,0.53,0.735,0.534,0.536,0.532,0.272,0.254,0.235,0.29,0.274
NCI-H1755,0.402,0.371,0.273,0.454,0.418,0.748,0.554,0.829,0.634,0.594,1.08,1.12,1.06,0.808,0.794,0.946,0.848,0.968,0.881,0.85
NCI-H1915,1.1,–,0.694,0.637,0.766,0.61,–,0.67,0.6,0.599,0.905,–,1.03,0.885,0.897,0.237,–,0.253,0.26,0.234
HARA,0.912,–,0.684,0.489,0.997,0.47,–,0.518,0.583,0.404,1.15,1.09,1.22,1.05,1.08,0.408,0.568,–,0.896,0.68
NCI-H2228,0.147,–,0.126,0.12,0.152,0.755,–,0.489,0.423,0.478,0.351,0.383,0.54,0.478,0.393,0.597,1.13,0.684,0.681,0.542
COR-L 105,0.696,–,0.844,0.632,0.732,0.771,0.739,0.65,0.653,0.685,0.793,–,0.791,0.827,0.726,0.873,0.663,0.678,0.724,0.665
CAL-12T,0.365,–,0.363,0.397,0.198,0.714,–,0.605,0.702,0.471,0.715,0.696,1.17,0.624,0.776,0.756,–,0.735,0.634,0.77
HCC-44,1.24,0.552,–,0.959,–,0.484,0.422,0.437,0.466,0.461,0.921,0.841,0.911,0.841,0.712,0.956,–,–,1.02,0.967
SK-MES-1,0.906,–,0.804,0.714,0.873,0.717,0.407,0.642,0.521,0.597,1.08,0.999,1.16,1.05,0.971,0.778,0.742,0.92,0.684,0.711
HCC-827,–,0.322,0.807,0.545,0.729,–,0.732,0.937,0.705,0.824,0.954,0.889,0.91,–,0.973,0.741,0.724,0.762,0.639,0.628
NCI-H2087,0.205,–,0.155,0.159,0.25,0.601,–,0.643,0.618,0.572,0.894,0.983,0.943,0.941,0.718,0.63,–,0.619,0.595,–
EMC-BAC-2,1.25,1.5,1.36,1.14,–,0.378,0.338,0.39,0.399,0.364,0.825,0.761,0.872,0.685,0.707,0.465,0.551,0.474,0.592,0.486
NCI-H2023,1.04,1.03,1.07,1.17,1.1,0.524,0.303,0.426,0.314,0.334,0.61,0.708,0.715,0.616,0.706,0.552,0.472,0.45,0.62,0.408
